Measured values published in ChEMBL document CHEMBL3621049, “Imidazole derivatives show anticancer potential by inducing apoptosis and cellular senescence” (2014).
Calls of active or inactive are those of the source.

Key:
Type in all cases: functional, cell-based
CCRF-CEM = experiment: Growth inhibition of human CCRF-CEM cells at 10 uM by sulforhodamine B assay
HL-60(TB) = experiment: Growth inhibition of human HL-60(TB) cells at 10 uM by sulforhodamine B assay
K562 = experiment: Growth inhibition of human K562 cells at 10 uM by sulforhodamine B assay
MOLT-4 = experiment: Growth inhibition of human MOLT4 cells at 10 uM by sulforhodamine B assay
RPMI-8226 = experiment: Growth inhibition of human RPMI8226 cells at 10 uM by sulforhodamine B assay
SR = experiment: Growth inhibition of human SR cells at 10 uM by sulforhodamine B assay
A549 = experiment: Growth inhibition of human A549/ATCC cells at 10 uM by sulforhodamine B assay
HOP-62 = experiment: Growth inhibition of human HOP62 cells at 10 uM by sulforhodamine B assay
NCI-H226 = experiment: Growth inhibition of human NCI-H226 cells at 10 uM by sulforhodamine B assay
NCI-H23 = experiment: Growth inhibition of human NCI-H23 cells at 10 uM by sulforhodamine B assay
NCI-H322M = experiment: Growth inhibition of human NCI-H322M cells at 10 uM by sulforhodamine B assay
NCI-H460 = experiment: Growth inhibition of human NCI-H460 cells at 10 uM by sulforhodamine B assay
NCI-H522 = experiment: Growth inhibition of human NCI-H522 cells at 10 uM by sulforhodamine B assay
COLO 205 = experiment: Growth inhibition of human COLO205 cells at 10 uM by sulforhodamine B assay
HCT-116 = experiment: Growth inhibition of human HCT116 cells at 10 uM by sulforhodamine B assay
HCT-15 = experiment: Growth inhibition of human HCT15 cells at 10 uM by sulforhodamine B assay
HT-29 = experiment: Growth inhibition of human HT-29 cells at 10 uM by sulforhodamine B assay
KM12 = experiment: Growth inhibition of human KM12 cells at 10 uM by sulforhodamine B assay
SW-620 = experiment: Growth inhibition of human SW620 cells at 10 uM by sulforhodamine B assay
SF-268 = experiment: Growth inhibition of human SF268 cells at 10 uM by sulforhodamine B assay
SF-295 = experiment: Growth inhibition of human SF295 cells at 10 uM by sulforhodamine B assay
SF-539 = experiment: Growth inhibition of human SF539 cells at 10 uM by sulforhodamine B assay
SNB-19 = experiment: Growth inhibition of human SNB19 cells at 10 uM by sulforhodamine B assay
SNB-75 = experiment: Growth inhibition of human SNB75 cells at 10 uM by sulforhodamine B assay
U-251 = experiment: Growth inhibition of human U251 cells at 10 uM by sulforhodamine B assay
LOX IMVI = experiment: Growth inhibition of human LOXIMVI cells at 10 uM by sulforhodamine B assay
M14 = experiment: Growth inhibition of human M14 cells at 10 uM by sulforhodamine B assay
MDA-MB-435 = experiment: Growth inhibition of human MDA-MB-435 cells at 10 uM by sulforhodamine B assay
SK-MEL-2 = experiment: Growth inhibition of human SK-MEL-2 cells at 10 uM by sulforhodamine B assay
SK-MEL-28 = experiment: Growth inhibition of human SK-MEL-28 cells at 10 uM by sulforhodamine B assay
SK-MEL-5 = experiment: Growth inhibition of human SK-MEL-5 cells at 10 uM by sulforhodamine B assay
UACC-257 = experiment: Growth inhibition of human UACC257 cells at 10 uM by sulforhodamine B assay
IGROV-1 = experiment: Growth inhibition of human IGROV1 cells at 10 uM by sulforhodamine B assay
OVCAR-3 = experiment: Growth inhibition of human OVCAR3 cells at 10 uM by sulforhodamine B assay
OVCAR-4 = experiment: Growth inhibition of human OVCAR4 cells at 10 uM by sulforhodamine B assay
OVCAR-5 = experiment: Growth inhibition of human OVCAR5 cells at 10 uM by sulforhodamine B assay
OVCAR-8 = experiment: Growth inhibition of human OVCAR8 cells at 10 uM by sulforhodamine B assay
NCI/ADR-RES = experiment: Growth inhibition of human NCI/ADR-RES cells at 10 uM by sulforhodamine B assay
SK-OV-3 = experiment: Growth inhibition of human SKOV3 cells at 10 uM by sulforhodamine B assay
786-0 = experiment: Growth inhibition of human 786-0 cells at 10 uM by sulforhodamine B assay
A498 = experiment: Growth inhibition of human A498 cells at 10 uM by sulforhodamine B assay
ACHN = experiment: Growth inhibition of human ACHN cells at 10 uM by sulforhodamine B assay
CAKI-1 = experiment: Growth inhibition of human Caki1 cells at 10 uM by sulforhodamine B assay
SN12C = experiment: Growth inhibition of human SN12C cells at 10 uM by sulforhodamine B assay
UO-31 = experiment: Growth inhibition of human UO31 cells at 10 uM by sulforhodamine B assay
PC-3 = experiment: Growth inhibition of human PC3 cells at 10 uM by sulforhodamine B assay
DU-145 = experiment: Growth inhibition of human DU145 cells at 10 uM by sulforhodamine B assay
MCF7 = experiment: Growth inhibition of human MCF7 cells at 10 uM by sulforhodamine B assay
MDA-MB-231 = experiment: Growth inhibition of human MDA-MB-231 cells at 10 uM by sulforhodamine B assay
Hs-578T = experiment: Growth inhibition of human Hs 578T cells at 10 uM by sulforhodamine B assay
BT-549 = experiment: Growth inhibition of human BT549 cells at 10 uM by sulforhodamine B assay
T47D = experiment: Growth inhibition of human T47D cells at 10 uM by sulforhodamine B assay
MDA-MB-468 = experiment: Growth inhibition of human MDA-MB-468 cells at 10 uM by sulforhodamine B assay
TK-10 = experiment: Growth inhibition of human TK10 cells at 10 uM by sulforhodamine B assay
UACC-62 = experiment: Growth inhibition of human UACC62 cells at 10 uM by sulforhodamine B assay
HOP-92 = experiment: Growth inhibition of human HOP92 cells at 10 uM by sulforhodamine B assay
Malme-3M = experiment: Growth inhibition of human MALME-3M cells at 10 uM by sulforhodamine B assay
HCC 2998 = experiment: Growth inhibition of human HCC2998 cells at 10 uM by sulforhodamine B assay
RXF 393 = experiment: Growth inhibition of human RXF393 cells at 10 uM by sulforhodamine B assay

Measured: growth inhibition (GI)

COc1cc(-c2nc(-c3ccccc3)c(-c3ccccc3)n2Cc2ccccc2)ccc1OC1CCCCC1
active: CCRF-CEM | HL-60(TB) | K562 | MOLT-4 | RPMI-8226 | SR | A549 | HOP-62 | NCI-H226 | NCI-H23 | NCI-H322M | NCI-H460 | NCI-H522 | COLO 205 | HCT-116 | HCT-15 | HT-29 | KM12 | SW-620 | SF-268 | SF-295 | SF-539 | SNB-19 | SNB-75 | U-251 | LOX IMVI | M14 | MDA-MB-435 | SK-MEL-2 | SK-MEL-28 | SK-MEL-5 | UACC-257 | IGROV-1 | OVCAR-3 | OVCAR-4 | OVCAR-5 | OVCAR-8 | NCI/ADR-RES | SK-OV-3 | 786-0 | A498 | ACHN | CAKI-1 | SN12C | UO-31 | PC-3 | DU-145 | MCF7 | MDA-MB-231 | Hs-578T | BT-549 | T47D | MDA-MB-468 | TK-10 | UACC-62 | HOP-92 | Malme-3M | HCC 2998 | RXF 393

CCCCCCn1c(-c2ccc(OC)c(OC3CCCC3)c2)nc(-c2ccccc2)c1-c1ccccc1
active: CCRF-CEM | HL-60(TB) | K562 | MOLT-4 | RPMI-8226 | SR | A549 | HOP-62 | NCI-H226 | NCI-H23 | NCI-H322M | NCI-H460 | NCI-H522 | COLO 205 | HCT-116 | HCT-15 | HT-29 | KM12 | SW-620 | SF-268 | SF-295 | SF-539 | SNB-19 | SNB-75 | U-251 | LOX IMVI | M14 | MDA-MB-435 | SK-MEL-2 | SK-MEL-28 | SK-MEL-5 | UACC-257 | IGROV-1 | OVCAR-3 | OVCAR-4 | OVCAR-5 | OVCAR-8 | NCI/ADR-RES | SK-OV-3 | 786-0 | A498 | ACHN | CAKI-1 | SN12C | UO-31 | PC-3 | DU-145 | MCF7 | MDA-MB-231 | Hs-578T | BT-549 | T47D | MDA-MB-468 | TK-10 | UACC-62 | HOP-92 | Malme-3M | HCC 2998 | RXF 393
